Reference: publication PMC12554177 (2025)

Legend:
[1] = system: Duplex (DNA, duplex) CAATCGGATCGAATTCGATCCGATTG; assay: CD melting; settings: 2 mM K+ (KCl); 10 mM Tris-HCl pH 7.4, 50 µM drug, 5 µM DNA
[2] = system: KRAS (DNA, G4) GGGAGGGAGGGAAGGAGGGAGGGAGGGA; assay: CD melting; settings: 2 mM K+ (KCl); 10 mM Tris-HCl pH 7.4, 50 µM drug, 5 µM DNA
[3] = system: c-myc (DNA, G4) TGAGGGTGGGTAGGGTGGGTAA; assay: 1H NMR imino titration; settings: 2 mM K+ (KCl), 100 µM DNA, H2O/D2O 90/10, 25 °C
[4] = system: c-myc (DNA, G4) TGAGGGTGGGTAGGGTGGGTAA; assay: CD melting; settings: 2 mM K+ (KCl); 10 mM Tris-HCl pH 7.4, 50 µM drug, 5 µM DNA
[5] = system: bcl2 (DNA, G4) AGGGGCGGGCGCGGGAGGAAGGGGGCGGA; assay: CD melting; settings: 2 mM K+ (KCl); 10 mM Tris-HCl pH 7.4, 50 µM drug, 5 µM DNA
[6] = system: labeled c-myc (DNA, G4) TGAGGGTGGGTAGGGTGGGTAA; assay: FRET melting; settings: 2 mM K+ (KCl); 2 µM HCQ, ~25 nM DNA
[7] = system: VEGF (DNA, G4) CCCGGGGCGGGCCGGGGGCGGGGTCCCGGCGGGGCGGAG; assay: CD melting; settings: 2 mM K+ (KCl); 10 mM Tris-HCl pH 7.4, 50 µM drug, 5 µM DNA
[8] = system: c-kit (DNA, G4) CGGGCGGGCGCGAGGGAGGGG; assay: CD melting; settings: 2 mM K+ (KCl); 10 mM Tris-HCl pH 7.4, 50 µM drug, 5 µM DNA

SMILES	binding [1]	ΔTm [2] [°C]	binding ([3]; 5' end stacking)	ΔTm [4]	ΔTm [5] [°C]	Tm increase [6]	ΔTm [7] [°C]	ΔTm [8] [°C]	binding [3]
CCN(CC)CCCC(C)Nc1ccnc2cc(Cl)ccc12 (stereo not shown)	no								
CCN(CCO)CCCC(C)Nc1ccnc2cc(Cl)ccc12 (stereo not shown)	no	12	yes	~ 17 °C	7	~ 12 °C	9	11	
Nc1ccnc2cc(Cl)ccc12									yes
